Measurements as given in US8129367B2, “Compounds for the treatment of Hepatitis C” (Bristol-Myers Squibb Company, priority 2007, dated 2012).

Assays:
HCV replicon cells = assay: HCV replicon FRET / luciferase assay; type: cell-based; details: Hepatitis C virus; 50% reduction in FRET or luciferase activity in HCV replicon cells
Experimental: FRET Assay Preparation. The HCV FRET screening assay was performed in 96-well cell culture plates. The FRET peptide (Anaspec, Inc.) (Taliani et al., Anal. Biochem. 1996, 240, 60-67) contains a fluorescence donor, EDANS, near one end of the peptide and an acceptor, DABCYL, near the other end. The fluorescence of the peptide is quenched by […] resonance energy transfer (RET) between the donor and the acceptor, but as the NS3 protease cleaves the peptide the products are released from RET quenching and the fluorescence of the donor becomes apparent. The assay reagent was made as follows: 5× cell Luciferase cell culture lysis reagent from Promega (#E153A) diluted to 1× with dH2O, NaCl added to 150 mM final, the FRET peptide diluted to 20 μM final from a 2 mM stock.
To prepare plates, HCV replicon cells, with or without a Renilla luciferase reporter gene, were trypsinized and plated in a 96-well plate with titrated test compounds added in columns 3 through 12; columns 1 and 2 contained a control compound (HCV control inhibitor), and the bottom row contained cells with DMSO only. The plates were then placed in a CO2 incubator at 37° C.
Assays. Subsequent to addition of the test compounds described above (FRET Assay Preparation), at various times the plate was removed and Alamar blue solution (Trek Diagnostics, #00-100) was added to measure cellular toxicity. After reading in a Cytoflour 4000 instrument (PE Biosystems), plates were rinsed with PBS and then used for FRET assay by the addition of 30 ul of the FRET peptide assay reagent described above (FRET Assay Preparation) per well. The plate was then placed into the Cytoflour 4000 instrument which had been set to 340 excite/490 emission, automatic mode for up to 20 cycles and the plate read in a kinetic mode. Typically, the signal to noise using an endpoint analysis after the reads was at least three-fold. Alternatively, after Alamar blue reading, plates were rinsed with PBS, then used for luciferase assay using the Promega Dual-Glo Luciferase Assay System or the Promega EnduRen Live Cell Substrate assay.
Compound analysis was performed by quantification of the relative HCV replicon inhibition and the relative cytotoxicity values. To calculate cytoxicity values, the average Alamar Blue fluorescence signals from the control wells were set as 100% non-toxic. The individual signals in each of the compound test wells were then divided by the average control signal and multiplied by 100% to determine […]. To calculate the HCV replicon inhibition values, an average background value was obtained from the two wells containing the highest amount of HCV control inhibitor at the end of the assay period. These numbers were similar to those obtained from naïve Huh-7 cells. The background numbers were then subtracted from the average signal obtained from the control wells and this number was used as 100% activity. The individual signals in each of the compound test wells were then divided by the averaged control values after background subtraction and multiplied by 100% to determine percent activity. EC50 values were calculated as the concentration which caused a 50% reduction in FRET or luciferase activity. The two numbers generated for the compound plate, percent cytoxicity and percent activity, were used to determine compounds of interest for further analysis.

HCV NS5B = molecular target: T1, HCV NS5B (Hepatitis C virus genotype 1b, UniProt Q9WMX2); assay: HCV NS5B RdRp enzyme assay; type: biochemical; details: HCV NS5B RdRp genotype 1b enzyme
T1 construct: The protein was expressed with an 18 amino acid C-terminal truncation to enhance the solubility; made in house; host or cells: E. coli BL21(DE3)
Experimental: HCV NS5B RdRp cloning, expression, and purification. The cDNA encoding the NS5B protein of HCV, genotype 1b, was cloned into the pET21a expression vector. The protein was expressed with an 18 amino acid C-terminal truncation to enhance the solubility. The E. coli competent cell line BL21(DE3) was used for expression of the protein. Cultures were grown at 37° C. for ˜4 hours until the cultures reached an optical density of 2.0 at 600 nm. The cultures were cooled to 20° C. and induced with 1 mM IPTG. Fresh ampicillin was added to a final concentration of 50 μg/ml and the cells were grown overnight at 20° C.
Cell pellets (3 L) were lysed for purification to yield 15-24 mgs of purified NS5B. The lysis buffer consisted of 20 mM Tris-HCl, pH 7.4, 500 mM NaCl, 0.5% triton X-100, 1 mM DTT, 1 mM EDTA, 20% glycerol, 0.5 mg/ml lysozyme, 10 mM MgCl2, 15 ug/ml deoxyribonuclease I, and Complete™ protease inhibitor tablets (Roche). After addition of the lysis buffer, frozen cell pellets were resuspended using a tissue homogenizer. To reduce the viscosity of the sample, aliquots of the lysate were sonicated on ice using a microtip attached to a Branson sonicator. The sonicated lysate was centrifuged at 100,000×g for 1 hr at 4° C. and filtered through a 0.2 μm filter unit (Corning).
The protein was purified using two sequential chromatography steps: Heparin sepharose CL-6B and polyU sepharose 4B (Pharmacia). The chromatography buffers were identical to the lysis buffer but contained no lysozyme, deoxyribonuclease I, MgCl2 or protease inhibitor and the NaCl concentration of the buffer was adjusted according to the requirements for charging the protein onto the column. Each column was eluted with a NaCl gradient which varied in length from 5-50 column volumes depending on the column type. After the final chromatography step, the resulting purity of the enzyme is >90% based on SDS-PAGE analysis. The enzyme was aliquoted and stored at −80° C.
Standard HCV NS5B RdRp enzyme assay. HCV RdRp genotype 1b assays were run in a final volume of 60 μl in 96 well plates (Corning 3600). The assay buffer is composed of 20 mM Hepes, pH 7.5, 2.5 mM KCl, 2.5 mM MgCl2, 1 mM DTT, 1.6 U RNAse inhibitor (Promega N2515), 0.01 mg/ml BSA (Sigma B6917), and 2% glycerol. All compounds were serially diluted (3-fold) in DMSO and diluted further in water such that the final concentration of DMSO in the assay was 2%. HCV RdRp genotype 1b enzyme was used at a final concentration of 28 nM. A polyA template was used at 6 nM, and a biotinylated oligo-dT12 primer was used at 180 nM final concentration. Template was obtained commercially (Amersham 27-4110). Biotinylated primer was prepared by Sigma Genosys. 3H-UTP was used at 0.6 μCi (0.29 μM total UTP). Reactions were initiated by the addition of enzyme, incubated at 30° C. for 60 min, and stopped by adding 25 μl of 50 mM EDTA containing SPA beads (4 μg/μl, Amersham RPNQ 0007). Plates were read on a Packard Top Count NXT after >1 hr incubation at room temperature.
Modified HCV NS5B RdRp enzyme assay. A modified enzyme assay was performed essentially as described for the standard enzyme assay except for the following: The biotinylated oligo dT12 primer was precaptured on streptavidin-coated SPA beads by mixing primer and beads in assay buffer and incubating at room temperature for one hour. Unbound primer was removed after centrifugation. The primer-bound beads were resuspended in 20 mM Hepes buffer, pH 7.5 and used in the assay at final concentrations of 20 nM primer and 0.67 μg/μl beads. Order of addition in the assay: enzyme (1.75 nM) was added to diluted compound followed by the addition of a mixture of template (0.36 nM), 3H-UTP (0.6 μCi, 0.29 μM), and primer-bound beads, to initiate the reaction; concentrations given are final. Reactions were allowed to proceed for 4 hours at 30° C.
IC50 values for compounds were determined using seven different [I]. […]

T1 sequence (Q9WMX2 2420-2992): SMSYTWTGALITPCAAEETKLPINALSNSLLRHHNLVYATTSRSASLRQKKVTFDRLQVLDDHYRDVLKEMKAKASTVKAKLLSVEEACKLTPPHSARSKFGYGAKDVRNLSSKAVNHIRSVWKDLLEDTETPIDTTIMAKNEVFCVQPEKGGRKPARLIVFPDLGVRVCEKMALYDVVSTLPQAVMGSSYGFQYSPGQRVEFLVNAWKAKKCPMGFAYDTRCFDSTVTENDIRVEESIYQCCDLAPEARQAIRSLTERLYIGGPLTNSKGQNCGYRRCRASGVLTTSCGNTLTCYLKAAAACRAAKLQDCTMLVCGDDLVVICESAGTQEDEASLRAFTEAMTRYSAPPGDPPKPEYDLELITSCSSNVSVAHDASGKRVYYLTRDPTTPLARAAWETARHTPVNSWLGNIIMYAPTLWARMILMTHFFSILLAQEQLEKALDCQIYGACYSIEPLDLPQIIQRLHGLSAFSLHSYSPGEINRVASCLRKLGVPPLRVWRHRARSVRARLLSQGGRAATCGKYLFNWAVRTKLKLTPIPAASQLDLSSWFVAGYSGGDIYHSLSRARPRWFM

Compound	EC50 (HCV replicon cells) [nM]	IC50 (HCV NS5B) [nM]
COc1ccc2c(c1)C1CC1(C(=O)N1C3CCC1CN(C)C3)Cn1c-2c(C2CCCCC2)c2ccc(C(=O)NS(=O)(=O)Cc3ccccn3)cc21 (stereo not shown)	4.2 to 500	4.2 to 500
COc1ccc2c(c1)C1CC1(C(=O)N1C3CCC1CN(C)C3)Cn1c-2c(C2CCCCC2)c2ccc(C(=O)NS(=O)(=O)c3ccc(C)cc3OC)cc21 (stereo not shown)	4.2 to 500	4.2 to 500
COc1ccc2c(c1)C1CC1(C(=O)N1C3CCC1CN(C)C3)Cn1c-2c(C2CCCCC2)c2ccc(C(=O)NS(=O)(=O)c3cccs3)cc21 (stereo not shown)	4.2 to 500	4.2 to 500
COc1ccc2c(c1)C1CC1(C(=O)N1C3CCC1CN(C)C3)Cn1c-2c(C2CCCCC2)c2ccc(C(=O)NS(=O)(=O)C=C(C)C)cc21 (stereo not shown)	4.2 to 500	4.2 to 500
COc1ccc2c(c1)C1CC1(C(=O)N1C3CCC1CN(C)C3)Cn1c-2c(C2CCCCC2)c2ccc(C(=O)NS(=O)(=O)Cc3cccc(Cl)c3)cc21 (stereo not shown)	4.2 to 500	4.2 to 500
COc1ccc2c(c1)C1CC1(C(=O)N1C3CCC1CN(C)C3)Cn1c-2c(C2CCCCC2)c2ccc(C(=O)NS(=O)(=O)c3ncccn3)cc21 (stereo not shown)	4.2 to 500	4.2 to 500
COc1ccc2c(c1)C1CC1(C(=O)N1C3CCC1CN(C)C3)Cn1c-2c(C2CCCCC2)c2ccc(C(=O)NS(=O)(=O)C3(CC4CC4)CC3)cc21 (stereo not shown)	4.2 to 500	4.2 to 500
COc1ccc2c(c1)C1CC1(C(=O)N1C3CCC1CN(C)C3)Cn1c-2c(C2CCCCC2)c2ccc(C(=O)NS(=O)(=O)c3nc(C)cc(C)n3)cc21 (stereo not shown)	4.2 to 500	4.2 to 500
COc1ccc2c(c1)C1CC1(C(=O)N1C3CCC1CN(C)C3)Cn1c-2c(C2CCCCC2)c2ccc(C(=O)NS(=O)(=O)C3CCOCC3)cc21 (stereo not shown)	4.2 to 500	4.2 to 500
COc1ccc2c(c1)C1CC1(C(=O)N1C3CCC1CN(C)C3)Cn1c-2c(C2CCCCC2)c2ccc(C(=O)NS(=O)(=O)N3CCCO3)cc21 (stereo not shown)	< 70	4.2 to 500
CCC#CCC1(S(=O)(=O)NC(=O)c2ccc3c(C4CCCCC4)c4n(c3c2)CC2(C(=O)N3C5CCC3CN(C)C5)CC2c2cc(OC)ccc2-4)CC1 (stereo not shown)	4.2 to 500	4.2 to 500
